Laboratory results from US20210346495A1, “METHODS AND COMPOSITIONS COMPRISING AN NFKB INHIBITOR AND AN ADJUVANT” (priority 2018, published 2021).
Entries after “also recorded” stand apart in the source; their conditions may differ.

Columns and labels:
[1] = test system: RAW macrophages; experiment: IL-6 expression of RAW macrophages with LPS and NF-kB inhibitors (Example 2)
[2] = test system: systemic TNF-a and IL-6; experiment: Systemic cytokines after vaccination with NF-kB inhibitor, CpG and ovalbumin (Example 2); type: in vivo, mouse; conditions: one hour post-vaccination
[3] = test system: systemic TNF-α and IL-6; experiment: Systemic cytokines after gp120 vaccination; type: in vivo, mouse; conditions: gp120 antigen, 1 h
Experimental: To examine how this would translate in vivo, the inventors vaccinated mice with CpG (50 μg), Pam3CSK4 (20 μg) and R848 (50 μg) using gp120 as the antigen.
Mice were anesthetized lightly with isoflurane and injected intramuscularly in the hind leg with 50 uL containing antigen, adjuvant and PBS. […] CpG dose, 50 μg. SN50, 500 TNF-aN, 30 μg. IL-6N, 30 μg.
Blood was collected from mice at specified time points in 0.2 mL heparin coated collection tubes (VWR Scientific). Serum was isolated via centrifugation 2000×g for 5 min. Supernatant was collected and stored at −80° C. until use. Serum was analyzed using BD Cytometric Bead Array Mouse Th1/Th2/Th17 cytokine kit or Mouse Inflammation cytokine kit according to manufacturer's protocol. Briefly, beads containing antibodies for desired cytokines were mixed with 50 μL serum and 50 μL PE detection reagent and incubated for 2 h. Beads were washed and analyzed using BD Accuri C6 flow cytometer. Data was analyzed using BD Accuri C6 software and Graphpad Prism.

[4] = test system: systemic cytokines; experiment: Plasma cytokine analysis after OVA/CpG/AddaVax vaccination (Example 3); type: in vivo, mouse; conditions: for systemic MCP-1 / systemic IFN-γ: combined with CpG; for systemic IFN-γ: 24 h; for systemic IL-6 vs CpG alone, dose study / systemic TNF-α vs CpG alone, all doses / systemic TNF-α, comparison between doses: honokiol 200, 400, 800 μg, capsaicin 1, 5, 20 μg
[5] = test system: systemic TNF-a and IL-6; experiment: Systemic cytokines, AddaVax vaccines with CpG or Pam3CSK4 (Example 2); type: in vivo, mouse; conditions: CpG or Pam3CSK4, ovalbumin, one hour
[6] = test system: RAW 264.7 macrophages; experiment: RAW macrophage cytokine analysis, IL-6 with LPS (Example 3); type: cell-based, mouse; conditions: for inhibition of IL-6 expression in vitro: capsaicin 200 μM, honokiol 20 μM, WA 400 nM
From the text: To begin exploring alternative NF-κB inhibitors, the inventors examined the literature for promising candidates. Due to the strong correlation between NF-KB activation and sepsis, cancer and autoimmune disorders, a large library of NF-κB inhibitors have been identified. The inventors first wanted to analyze the potential of a variety small molecule NF-κB inhibitors to inhibit inflammation in vitro in combination with lipopolysaccharide (LPS), a TLR4 agonist. The inventors chose several common commercially available NF-κB inhibitors and tested them in RAW macrophages. […] To determine if immune potentiation was specific to NFkB or general to all anti-inflammatory molecules, the inventors included the most common, FDA approved anti-inflammatory drugs acetaminophen (10 mM) and ibuprofen (800 μM). The inventors treated RAW macrophages with inhibitors and LPS and assayed the supernatant for IL-6 secretion (FIG. 18A).
The inventors examined the activities of the synthesized compounds in order to understand how the various functional groups affect anti-inflammatory action or adaptive immune response (FIGS. 23, 25). The inventors treated RAW macrophages with honokiol derivatives and LPS and analyzed IL-6 expression. The addition of LPS alone without a honokiol derivative gave high levels of IL-6 expression (6848 pg/mL). The addition of honokiol decreased IL-6 levels to 260 pg/mL, a decrease of 26-fold.
RAW macrophage cytokine analysis: RAW 264.7 macrophages were passaged and plated in a cell culture treated 12-well plate at 0.5×10^6 cells/well in 1 mL DMEM containing 10% FBS. Cells were grown for 2 days. Media was exchanged for 1 mL DMEM containing 10% HIFBS. Inhibitors were added at indicated concentrations and incubated for 45 min. After 45 min, LPS was added at 100 ng/mL and incubated at 37° C. and 5% CO2 for 24 h. Cell supernatant was removed and analyzed using BD Cytometric Bead Array Mouse Inflammation Kit.

[7] = test system: ovalbumin (OVA); experiment: Anti-OVA antibody quantification day 21 (Example 3); type: in vivo, mouse
[8] = test system: ovalbumin; experiment: Anti-ovalbumin antibody titer day 21, AddaVax vaccines (Example 2); type: in vivo, mouse
From the text: The inventors next wanted to examine how capsaicin, honokiol and WA would work with other TLR agonists. Additionally, the inventors wanted to compare these inhibitors to the most commonly used anti-inflammatory drugs, ibuprofen and acetaminophen. The inventors formulated the vaccines using AddaVax, an oil-in-water emulsion to ensure solubility of the inhibitors. The inventors used either CpG, a TLR 9 agonist or Pam3CSK4, a TLR 1/2 agonist as the immune adjuvant and ovalbumin as the antigen. The inventors analyzed systemic cytokines one hour post-vaccination. […] On day 21 the inventors analyzed the anti-ovalbumin antibody titer.

[9] = Pain response observed after vaccination; type: in vivo, mouse; conditions: original dose 20 μg
[10] = test system: non-human primate (NHP) primary peripheral blood mononuclear cells (PBMCs); experiment: NHP PBMCs stimulated with LPS with or without SN50; type: cell-based; conditions: 6 h
Experimental: To understand how this may translate to human vaccinations, the inventors treated THP-1 monocytes with […] LPS with or without SN50. […] Additionally, the inventors examined the effects of SN50 on non-human primate (NHP) primary peripheral blood mononuclear cells (PBMCs). The inventors stimulated NHP PBMCs with SN50 and LPS or LPS alone for 6 h and analyzed the cell supernatant for pro-inflammatory cytokines. […] This implies that SN50 may work similarly in NHP and humans as it does in mice.

[11] = inhibitor 45 min before 100 ng/mL LPS, 3 h
[12] = 100 μg OVA, 50 μg CpG + inhibitor, AddaVax, 1 h
[13] = 100 μg OVA, 50 μg CpG, AddaVax, 1 h

COc1cc(O)c2c(c1)/C=C/C[C@H](O)[C@H](O)C(=O)/C=C\C[C@H](C)OC2=O [5-z-o, 5Z-7-Oxozeaenol]
IL-6 expression [1, 11]: complete reduction of IL-6 to background levels; also recorded: completely inhibited IL-6 expression

O=C(/C=C/c1ccc(O)c(O)c1)OCCc1ccccc1 [CAPE, Caffeic acid phenethyl ester]
systemic IL-6 [2]: about a two-fold decrease in IL-6 levels | systemic TNF-a [2]: no change in systemic TNF-a levels compared to CpG alone | IL-6 expression [1, 11]: complete reduction of IL-6 to background levels; also recorded: completely inhibited IL-6 expression

CCOCc1nc2c(N)nc3ccccc3c2n1CC(C)(C)O [R848]
systemic TNF-α and IL-6, effect of adding SN50 to the named adjuvant [3]: significant decrease in systemic cytokines

CC(/C=C/C(=O)NO)=C\[C@@H](C)C(=O)c1ccc(N(C)C)cc1 [TSA]
IL-6 expression [1, 11]: complete reduction of IL-6 to background levels

CC1=C(CO)C(=O)O[C@@H]([C@@H](C)[C@H]2CC[C@H]3[C@@H]4C[C@H]5O[C@]56[C@@H](O)C=CC(=O)[C@]6(C)[C@H]4CC[C@]23C)C1 [WA, Withaferin A]
decrease of systemic TNF-α vs CpG [4, 12]: 1.8 fold | systemic IL-6 [4, 12]: did not decrease IL-6 expression significantly | systemic IL-6 [2]: about a two-fold decrease in IL-6 levels | systemic TNF-a [2]: no change in systemic TNF-a levels compared to CpG alone | IL-6 expression [1, 11]: decreases in proinflammatory cytokine activity without entirely blocking expression; also recorded: completely inhibited IL-6 expression | systemic IL-6 [5]: less effective at decreasing systemic IL-6 levels | inhibition of IL-6 expression in vitro [6]: most effective at inhibiting IL-6 expression in vitro

CC(=O)Nc1ccc(O)cc1 [acetaminophen]
decrease of systemic TNF-α vs CpG [4, 12]: 1.8 fold | systemic IL-6 [4, 12]: did not decrease IL-6 expression significantly | anti-OVA antibody level lower than CpG alone [7]: 2.4 fold | systemic IL-6 [5]: less effective at decreasing systemic IL-6 levels | anti-ovalbumin antibody titer [8]: decreases in antibody titer

COc1cc(CNC(=O)CCCCC=CC(C)C)ccc1O [capsaicin, 8-methyl-N-vanillyl-6-nonenamide]
decrease of systemic TNF-α vs CpG [4, 12]: 28 fold | reduction of systemic IL-6 vs CpG [4, 12]: 20 fold | systemic IL-6 [4, 13]: 47.4 pg/mL | systemic MCP-1 [4]: slightly elevated MCP-1 levels | systemic IFN-γ [4]: increased IFN-γ levels at 24 h compared to CpG alone | systemic IL-6 vs CpG alone, dose study ([4]; 1 h): only decreased with 400 μg and 800 μg honokiol and 20 μg capsaicin | systemic TNF-α vs CpG alone, all doses ([4]; 1 h): decreased TNF-α levels significantly across all doses compared to CpG alone | systemic TNF-α, comparison between doses ([4]; 1 h): Doses of 5 μg and 20 μg decreased levels of TNF-α significantly more than 1 μg | anti-OVA antibodies in the serum vs CpG alone ([7]; 1 μg and 5 μg): did not change level of anti-OVA antibodies in the serum compared to CpG alone | anti-OVA antibodies in the serum vs CpG alone ([7]; 20 μg): significantly increased serum levels | systemic IL-6 [2]: IL-6 levels consistent with PBS injection | systemic TNF-a [2]: returning the systemic TNF-a levels to background | IL-6 expression [1, 11]: reduced levels of IL-6 | pain response [9]: pain response was observed | systemic IL-6 [5]: decreased to levels consistent with PBS | systemic TNF-a [5]: comparable to PBS alone | inhibition of IL-6 expression in vitro [6]: most effective at inhibiting IL-6 expression in vitro

COc1cc(O)cc(O)c1C(=O)/C=C/c1ccccc1 [cardamonin, Cardamonin]
systemic TNF-a [2]: no change in systemic TNF-a levels compared to CpG alone | IL-6 expression [1, 11]: completely inhibited IL-6 expression | IL-6 expression ([1]; inhibitor 45 min before 100 ng/mL LPS, 3 h, listed as Cardamonin): complete reduction of IL-6 to background levels

COc1cc(/C=C/C(=O)CC(=O)/C=C/c2ccc(O)c(OC)c2)ccc1O [curcumin]
systemic IL-6 [2]: did not significantly alter the IL-6 levels | systemic TNF-a [2]: increasing the average expression levels | IL-6 expression [1, 11]: did not demonstrate a change in IL-6 activity in vitro

C=CCc1ccc(O)c(-c2ccc(O)c(CC=C)c2)c1 [honokiol]
decrease of systemic TNF-α vs CpG [4, 12]: 2.3 fold | reduction of systemic IL-6 vs CpG [4, 12]: 3.5 fold | systemic IL-6 [4, 13]: 266 pg/mL | systemic MCP-1 [4]: slightly elevated MCP-1 levels | systemic IFN-γ [4]: increased IFN-γ levels at 24 h compared to CpG alone | systemic IL-6 vs CpG alone, dose study ([4]; 1 h): only decreased with 400 μg and 800 μg honokiol and 20 μg capsaicin | systemic TNF-α vs CpG alone, all doses ([4]; 1 h): significant decrease in TNF-α expression compared to CpG alone | systemic TNF-α, comparison between doses ([4]; 1 h): no significant difference between the different doses | anti-OVA antibodies vs CpG alone, all doses ([7]; honokiol 200, 400, 800 μg): all doses of honokiol increased levels of anti-OVA antibodies compared to CpG alone | dose with the highest anti-OVA antibody level ([7]; honokiol 200, 400, 800 μg): 400 µg | systemic IL-6 [2]: about a two-fold decrease in IL-6 levels | systemic TNF-a [2]: reduced the TNF-a levels by two-fold | IL-6 expression [1, 11]: decreases in proinflammatory cytokine activity without entirely blocking expression; also recorded: reduced levels of IL-6 | decrease in systemic IL-6 [5]: 4 fold | inhibition of IL-6 expression in vitro [6]: most effective at inhibiting IL-6 expression in vitro | IL-6 expression ([6]; honokiol derivative study): 260 pg/mL | decrease of IL-6 vs LPS alone ([6]; honokiol derivative study): 26 fold

CC(C)Cc1ccc(C(C)C(=O)O)cc1 (stereo not shown) [ibuprofen]
decrease of systemic TNF-α vs CpG [4, 12]: 1.4 fold | systemic IL-6 [4, 12]: did not decrease IL-6 expression significantly | systemic TNF-α [4, 13]: 738 pg/mL | anti-OVA antibody level lower than CpG alone [7]: 3.2 fold | systemic IL-6 [5]: less effective at decreasing systemic IL-6 levels | anti-ovalbumin antibody titer [8]: decreases in antibody titer

O=c1cc(-c2ccc(O)c(O)c2)oc2cc(O)cc(O)c12 [luteolin]
IL-6 expression [1, 11]: decreases in proinflammatory cytokine activity without entirely blocking expression

Oc1ccc(C=Cc2cc(O)cc(O)c2)cc1 [resveratrol]
IL-6 expression [1, 11]: decreases in proinflammatory cytokine activity without entirely blocking expression

Pam3CSK4
systemic TNF-α and IL-6, effect of adding SN50 to the named adjuvant [3]: significant decrease in systemic cytokines

lipopolysaccharide [LPS]
TNF-α and IL-6 in the cell supernatant [10]: high levels of TNF-α and IL-6 | IL-6 expression ([1]; 100 ng/mL LPS, 3 h post-activation): 362 pg/mL | IL-6 expression ([6]; honokiol derivative study): 6848 pg/mL
